The record followed here is patent publication US8653040B2, “Compositions containing sesamin-class compound(s) and quercetin glycoside(s)” (Suntory Holdings Limited, priority 2007, dated 2014).

The data set can be described thus: Blood (plasma) concentration of sesamin and episesamin in rats after oral administration of the mixture of sesamin-class compounds alone or simultaneously with a test substance (LC-MS/MS). The note with it: Example 3, 10 mg/kg sesamin-class compounds plus 200 μmol/kg test flavonoid glycoside in 0.5% CMC suspension.

Protocol: SD (IGS) male rats (7-wk old) were purchased from CHARLES RIVER JAPAN INC. and habituated in the test environment for a week; the animals that were seen to grow normally were selected and subjected to the test. […] After adding an internal standard (UDESMIN; Funakoshi Co., Ltd.) to the samples, solid-phase extraction was performed with Oasis HLB and the resulting solution was concentrated under vacuum, suspended in methanol, passed through a filter, and subjected to LC-MS/MS for quantification of sesamin. The quantities of the sesamin-class compounds were determined from the ratio between their peak area and that of UDESMIN used as the internal standard. […]

Regarding αG-hesperidin, the “bodily absorption amount (AUC) of the sesamin-class compounds relative to the control” value is 0.71 times.
